Structures can show the parent of a compound that is named as a salt.
System: cellular pERK in NCI-H1975 cells (EGFR/L858R-T790M)
Assay: pERK potency assay (In Cell ELISA)
Type: cell-based
Conditions: Homo sapiens, 1 h compound incubation
From the text: The assay measures the ability of a compound to inhibit SOS1 function in cells. SOS1 activates RAS proteins by catalyzing the conversion of RAS GDP to RAS GTP in response to receptor tyrosine kinase activation. Activation of RAS induces a sequence of cellular signaling events that result in increased phosphorylation of ERK at Threonine 202 and Tyrosine 204 (pERK). The procedure (i.e., In Cell ELISA as described below) measures the level of cellular pERK in response to a test compound in NCI-H1975 cells (EGFR/L858R-T790M).
First, NCI-H1975 cells were grown and maintained using media and procedures recommended by the ATCC. A day before compound addition, cells were plated in poly-D-lysine coated 96-well cell culture plates (Corning® BioCoat® Cat #356640) at 25000 cells/well/100 μL and grown overnight in an incubator at 37° C. with 5% CO2. A solution of a test compound was prepared with 3-fold serial dilutions in DMSO having a top concentration of 6 mM. On the day of the assay, 50 μL of a test compound dilution in media was added to each well of cell culture plate with a final compound concentration in the range of 0.001 μM to 20 μM. After addition of the compound, cells were incubated for 1 h at 37° C. with 5% CO2, after which the culture medium was removed. Cells were fixed with 4% formaldehyde in phosphate-buffered saline (PBS) and incubated at RT for 20 min. The plate was washed three times with PBST (PBS with 0.05% Tween®-20), followed by incubation with 100 μL of pre-cooled methanol at −20° C. for 20 min. After incubation, methanol was removed. The plate was again washed with PBST. Cells were then permeabilized with 100 μL/well of 0.1% Triton X-100 in PBS at RT for 20 min and then quenched with a quenching buffer (PBST containing 1% H2O2 and 0.1% sodium azide) for 20 min at RT with gentle shaking. After washing once with PBST, a blocking buffer (250 uL/well, Pierce™ Protein-Free-PBS Blocking Buffer, Cat #37572) was then added to the cells for 1-h incubation at RT, followed by an anti-pERK antibody (cell signaling, 1:1000 dilution in 5% BSA in PBST) incubation overnight at 4° C. and a secondary antibody-HRP (Jackson immunoresearch, 1:3000 dilution in 5% BSA in PBST) incubation at RT for 1 h. PBST wash was carried out after each step three times. Before the addition of a substrate (Advansta ELISABright™), the plate was washed with PBS twice to remove detergent residues. The Cellular pERK level was determined using the microplate reader (Biotek Synergy™ H1) to detect the chemiluminescence signal. IC50 was determined by fitting a 4-parameter sigmoidal concentration-response model.

Compound | IC50 [nM]
Cc1c([C@@H](C)/N=c2\nc(C)n(C(C)C)c3cnc(N4CCOCC4)cc23)cccc1C(F)(F)F [Compound 78] | < 100
CC(=O)N1CCN(c2cc3/c(=N/[C@H](C)c4cccc(C(F)(F)F)c4C)nc(C)n(C)c3cn2)C(=O)C1 [Compound 68] | < 100
CC(=O)N1CCC(F)(c2cc3/c(=N/[C@H](C)c4cccc(C(F)(F)F)c4C)ncn(C)c3cn2)CC1 [Compound 15, (R,Z)-1-(4-fluoro-4-(1-methyl-4-((1-(2-methyl-3-(trifluoromethyl)phenyl)-ethyl)imino)-1,4-dihydropyrido[3,4-d]pyrimidin-6-yl)piperidin-1-yl)ethan-1-one hydrochloride] | < 100
Cc1c(C#N)cccc1[C@@H](C)/N=c1\nc(C)n(C)c2cnc(N3CCC4(CC4)C3)cc12 [Compound 65] | < 100
CC(=O)N1CC=C(c2cc3/c(=N/[C@H](C)c4cccc(C(F)(F)F)c4C)nc4n(c3cn2)CCC4)CC1 [Compound 25, (R,Z)-1-(4-(5-((1-(2-methyl-3-(trifluoromethyl)phenyl)ethyl)imino)-5,7,8,9-tetrahydropyrido[4,3-e]pyrrolo[1,2-a]pyrimidin-3-yl)-3,6-dihydropyridin-1(2H)-yl)ethan-1-one] | < 100
CC(=O)N1CCC(F)(c2cc3/c(=N/[C@H](C)c4cccc(C(F)(F)F)c4C)nc(C)n(C)c3cn2)CC1 [Compound 1, (R,Z)-1-(4-(1,2-dimethyl-4-((1-(2-methyl-3-(trifluoromethyl)phenyl)ethyl)imino)-1,4-dihydropyrido[3,4-d]pyrimidin-6-yl)-4-fluoropiperidin-1-yl)ethan-1-one] | < 100
Cc1n/c(=N\[C@H](C)c2cccc(C(F)F)c2F)c2cc(C3=CCN(S(C)(=O)=O)CC3)ncc2n1C [Compound 97, (R,Z)—N-(1-(3-(difluoromethyl)-2-fluorophenyl)ethyl)-1,2-dimethyl-6-(1-(methylsulfonyl)-1,2,3,6-tetrahydropyridin-4-yl)pyrido[3,4-d]pyrimidin-4(1H)-imine] | < 100
CC(=O)N1CCC(F)(c2cc3/c(=N/[C@H](C)c4cccc(C(F)(F)F)c4C)nc4n(c3cn2)CCC4)CC1 [Compound 27, (R,Z)-1-(4-fluoro-4-(5-((1-(2-methyl-3-(trifluoromethyl)phenyl)ethyl)-imino)-5,7,8,9-tetrahydropyrido[4,3-e]pyrrolo[1,2-a]pyrimidin-3-yl)piperidin-1-yl)ethan-1-one] | < 100
Cc1c([C@@H](C)/N=c2\nc3n(c4cnc(N5CCOCC5)cc24)CCC3)cccc1C(F)(F)F [Compound 77] | < 100
CC(=O)N1CCC(F)(c2cc3/c(=N/[C@H](C)c4cccc(C(F)(F)F)c4C)nc(C)n(C)c3cn2)C[C@H]1C (stereo partly drawn) [Compound 45, 1-((2R)-4-((Z)-1,2-dimethyl-4-(((R)-1-(2-methyl-3-(trifluoromethyl)phenyl)ethyl)imino)-1,4-dihydropyrido[3,4-d]pyrimidin-6-yl)-4-fluoro-2-methylpiperidin-1-yl)ethan-1-one] | < 100
CC(=O)N1CCC(O)(c2cc3/c(=N/[C@H](C)c4cccc(C(F)F)c4F)nc4n(c3cn2)CCC4)CC1 [Compound 28] | < 100
CC(=O)N1CCC(O)(c2cc3/c(=N/[C@H](C)c4cccc(C(F)(F)F)c4C)nc4n(c3cn2)CCC4)CC1 [Compound 26, (R,Z)-1-(4-hydroxy-4-(5-((1-(2-methyl-3-(trifluoromethyl)phenyl)ethyl)-imino)-5,7,8,9-tetrahydropyrido[4,3-e]pyrrolo[1,2-a]pyrimidin-3-yl)piperidin-1-yl)ethan-1-one] | < 100
Cc1c([C@@H](C)/N=c2\nc(C)n(C)c3cnc(N4CCC5(CC4)CC5)cc23)cccc1C(F)(F)F [Compound 51] | < 100
CC(=O)N1CCC(F)(c2cc3/c(=N/[C@H](C)c4cccc(C(F)F)c4F)nc4n(c3cn2)CCC4)CC1 [Compound 29] | < 100
Cc1c(C#N)cccc1[C@@H](C)/N=c1\nc(C)n(C)c2cnc(N3CCC(F)(F)C3)cc12 [Compound 66] | < 100
Cc1c(C#N)cccc1[C@@H](C)/N=c1\nc(C)n(C)c2cnc(N3CCC(C)(O)CC3)cc12 [Compound 67] | < 100

Compound | IC50 [nM]
CC(=O)N1CCC(O)(c2cc3/c(=N/[C@H](C)c4cccc(C(F)F)c4F)nc(C)n(C)c3cn2)CC1 [Compound 5, (R,Z)-1-(4-(4-((1-(3-(difluoromethyl)-2-fluorophenyl)ethyl)imino)-1,2-dimethyl-1,4-dihydropyrido[3,4-d]pyrimidin-6-yl)-4-hydroxypiperidin-1-yl)ethan-1-one] | < 100
COc1nc(C2(F)CCN(C(C)=O)CC2)cc2/c(=N/[C@H](C)c3cccc(C(F)(F)F)c3C)ncn(C)c12 [Compound 23, (R,Z)-1-(4-fluoro-4-(8-methoxy-1-methyl-4-((1-(2-methyl-3-(trifluoromethyl)phenyl)ethyl)imino)-1,4-dihydropyrido[3,4-d]pyrimidin-6-yl)piperidin-1-yl)ethan-1-one] | < 100
CC(=O)N1CCC(F)(c2cnc3c(c2)/c(=N/[C@H](C)c2cccc(C(F)(F)F)c2C)nc(C)n3C)CC1 [Compound 13] | < 100
Cc1c(C#N)cccc1[C@@H](C)/N=c1\nc(C)n(C)c2cnc(N3CC(F)C3)cc12 [Compound 69] | < 100
Cc1c(C#N)cccc1[C@@H](C)/N=c1\nc(C)n(C)c2cnc(N3CC(C)(O)C3)cc12 [Compound 73] | < 100
Cc1c(C#N)cccc1[C@@H](C)/N=c1\nc(C)n(C)c2cnc(N3CCCC3)cc12 [Compound 57] | < 100
Cc1c(C#N)cccc1[C@@H](C)/N=c1\nc(C)n(C)c2cnc(C3(C(F)F)CC3)cc12 [Compound 19] | < 100
CC(=O)N1CC=C(c2cc3/c(=N/[C@H](C)c4cccc(C(F)F)c4F)nc(C)n(C)c3cn2)CC1 [Compound 4, (R,Z)-1-(4-(4-((1-(3-(difluoromethyl)-2-fluorophenyl)ethyl)imino)-1,2-dimethyl-1,4-dihydropyrido[3,4-d]pyrimidin-6-yl)-3,6-dihydropyridin-1(2H)-yl)ethan-1-one] | < 100
CC(=O)NCC#Cc1cc2/c(=N/[C@H](C)c3cccc(C(F)F)c3F)nc(C)n(C)c2cn1 [Compound 85, (R,Z)—N-(3-(4-((1-(3-(difluoromethyl)-2-fluorophenyl)ethyl)imino)-1,2-dimethyl-1,4-dihydropyrido[3,4-d]pyrimidin-6-yl)prop-2-yn-1-yl)acetamide] | < 100
COC1CN(c2cc3/c(=N/[C@H](C)c4cccc(C#N)c4C)nc(C)n(C)c3cn2)C1 [Compound 76] | < 100
Cc1c(C#N)cccc1[C@@H](C)/N=c1\nc(C)n(C)c2cnc(N3CCOC[C@H]3C)cc12 [Compound 74] | < 100
CC(=O)N1CC=C(c2cc3/c(=N/[C@H](C)c4cccc(C(F)(F)F)c4C)nc(C4CC4)n(C)c3cn2)CC1 [Compound 3] | < 100
CC(=O)N1CC=C(c2cc3/c(=N/[C@H](C)c4cccc(C(F)(F)F)c4C)nc4n(c3cn2)CCO4)CC1 [Compound 32, (R,Z)-1-(4-(5-((1-(2-methyl-3-(trifluoromethyl)phenyl)ethyl)imino)-8,9-dihydro-5H-oxazolo[3,2-a]pyrido[4,3-e]pyrimidin-3-yl)-3,6-dihydropyridin-1(2H)-yl)ethan-1-one] | < 100
Cc1c(C#N)cccc1[C@@H](C)/N=c1\nc(C)n(C)c2cnc(N3CCC(F)(F)CC3)cc12 [Compound 59] | < 100
Cc1c([C@@H](C)/N=c2\nc(C)n(C)c3cnc(N4CCn5c(C(F)F)cnc5C4)cc23)cccc1C(F)(F)F [Compound 80, (R,Z)-6-(3-(difluoromethyl)-5,6-dihydroimidazo[1,2-a]pyrazin-7(8H)-yl)-1,2-dimethyl-N-(1-(2-methyl-3-(trifluoromethyl)phenyl)ethyl)pyrido[3,4-d]pyrimidin-4(1H)-imine] | < 100
Cc1c([C@@H](C)/N=c2\nc(C)n(C)c3cnc(C4=CCN(S(C)(=O)=O)CC4)cc23)cccc1C(F)(F)F [Compound 42, (R,Z)-1,2-dimethyl-N-(1-(2-methyl-3-(trifluoromethyl)phenyl)ethyl)-6-(1-(methylsulfonyl)-1,2,3,6-tetrahydropyridin-4-yl)pyrido[3,4-d]pyrimidin-4(1H)-imine] | < 100

Source: patent US20240190868A1, “SOS1 INHIBITORS” (Acerand Therapeutics (USA) Limited, priority 2022, published 2024)
